According to patent publication US20250352537A1, “PHARMACEUTICAL COMPOSITIONS OF TRICYCLIC AKR1C3 DEPENDENT KARS INHIBITOR AND METHODS FOR MAKING SAME” (NOVARTIS AG, priority 2022, published 2025):

What was measured:
Format in all cases: physicochemical
[1] = Hot melt extrusion (HME) thermal stability; conditions: extrusion of compound-polymer mixture at temperatures in excess of 160° C.
Excerpt: A holt melt extrusion (HME) approach was also attempted.

[2] = Initial stability evaluation of lyophilized solid dispersions (mDSC, UPLC); conditions: initial purity of Compound (I) 99.3%
Description: The following example illustrates the initial feasibility assessment of an amorphous solid dispersion formulation. An amorphous solid dispersion (ASD) was initially evaluated as a potential formulation for Compound (1). Solid dispersion screening was performed by lyophilization of solid Compound (1) with a polymer. Miscibility trials of Compound (1) were performed with Kollidon® VA64, HPMC-AS-LF, Eudragit® L100-55, and HPMC 603, by conducting a DSC measurement of the lyophilized material to determine if the material was amorphous or crystalline. […] Kollidon® VA64 at both 50% and 40% drug loading recrystallized after 5 weeks. HPMC-AS-LF and Eudragit® L100-55 remained amorphous under stressed conditions. However, HPMC-AS-LF and Eudragit® L100-55 both have significant impurities after 5 weeks until stressed conditions, according to UPLC analysis.

[3] = Supersaturation / desupersaturation of DMSO solution in FaSSIF-V1; conditions: FaSSIF-V1, 37° C.
Description: FIG. 1 is a an illustration of Compound (I) desupersaturation profiles in FaSSIF-V1 when added as DMSO solution at drug loads from 100 to 2000 ppmw
The supersaturation potential of Compound (1) was studied by mixing drug dissolved in 1 mL DMSO into 99 mL FaSSIF-V1 stirred at 37° C. (FIG. 1). At higher drug loads of 500, 1000 or 2000 ppmw (or […]) Compound (1) precipitated practically instantaneously and attained a constant steady state concentration of approx. 20 μg/mL or below within 5 minutes.. At the 90 min final sampling the solids were confirmed to be crystalline Compound (1) by XRPD. At lower drug loads, supersaturation was maintained longer, e.g. approx. 110 μg/mL drug dissolved at 5 min at 200 ppmw drug load and approx. 70 μg/mL drug dissolved till 20 min at 100 ppmw drug load. Situation after desupersaturation was similar as described for higher drug loads.

stability on hot melt extrusion [1]: thermal degradation
UPLC (%) ([2]; 3 weeks 50° C./75% RH): 99.09%
UPLC (%) ([2]; 5 weeks 50° C./75% RH): 99.05%
drug dissolved ([3]; at 5 min at 200 ppmw drug load): approx. 110 μg/mL
steady state concentration ([3]; drug loads of 500, 1000 or 2000 ppmw, within 5 minutes): ≤ 20 µg/mL
supersaturation potential ([3]; overall): rather poorly supersaturating
drug dissolved ([3]; till 20 min at 100 ppmw drug load): approx. 70 μg/mL
SMILES: O=C1CC2(CCN(C(=O)NCc3ccc(F)cc3)CC2)Nc2ccc(F)cc21 [Compound (I), 6′-fluoro-N-(4-fluorobenzyl)-4′-oxo-3′,4′-dihydro-1′H-spiro[piperidine-4,2′-quinoline]-1-carboxamide]
